The results in this text go back to paper PMC5218480 (PLoS ONE, 2017).

The test system of this experiment is MV-4-11 cells. The experiment is described as follows: Gene expression microarray analysis (Affymetrix PrimeView) and GSEA. Format: cell-based, human. Details: RFU PODN (11730768_x_at) / Fold change /veh PODN (11730768_x_at) / RFU LINC00158 (11744669_a_at) / Fold change /veh LINC00158 (11744669_a_at) / RFU DUSP10 (11751237_a_at) / Fold change /veh DUSP10 (11751237_a_at) / RFU ID3 (11757404_x_at) / Fold change /veh ID3 (11757404_x_at) / RFU PLEKHG5 (11737974_s_at) / Fold change /veh PLEKHG5 (11737974_s_at) / RFU LRRC4B (11730491_at) / Fold change /veh LRRC4B (11730491_at) / RFU GIMAP4 (11747438_a_at) / Fold change /veh GIMAP4 (11747438_a_at) / RFU KRT8 (11758183_x_at) / Fold change /veh KRT8 (11758183_x_at) / RFU CNN1 (11734310_a_at) / Fold change /veh CNN1 (11734310_a_at) / RFU VPS37D (11726825_at) / Fold change /veh VPS37D (11726825_at) / RFU C10orf10 (11716522_x_at) / Fold change /veh C10orf10 (11716522_x_at) / RFU KIR2DL2 /// KIR2DL4 /// KIR2DL5A /// KIR2DL5B /// KIR2DS1 /// KIR2DS2 /// KIR2DS3 /// KIR2DS4 /// KIR3DL3 /// KIR3DL3 /// KIR3DS1 (11738374_at) / Fold change /veh KIR2DL2 /// KIR2DL4 /// KIR2DL5A /// KIR2DL5B /// KIR2DS1 /// KIR2DS2 /// KIR2DS3 /// KIR2DS4 /// KIR3DL3 /// KIR3DL3 /// KIR3DS1 (11738374_at) / RFU C1QL1 (11718748_at) / Fold change /veh C1QL1 (11718748_at) / RFU TMPRSS4 (11747572_a_at) / Fold change /veh TMPRSS4 (11747572_a_at) / RFU HAMP (11756126_x_at) / Fold change /veh HAMP (11756126_x_at) / RFU RNFT2 (11725882_a_at) / Fold change /veh RNFT2 (11725882_a_at) / RFU NR4A2 (11747474_a_at) / Fold change /veh NR4A2 (11747474_a_at) / RFU ABCC12 (11746883_a_at) / Fold change /veh ABCC12 (11746883_a_at) / RFU TMEM136 (11760407_x_at) / Fold change /veh TMEM136 (11760407_x_at) / RFU CLDN22 /// WWC2 (11732394_at) / Fold change /veh CLDN22 /// WWC2 (11732394_at) / RFU HLA-DPB1 (11760878_x_at) / Fold change /veh HLA-DPB1 (11760878_x_at) / RFU SPINT1 (11716480_a_at) / Fold change /veh SPINT1 (11716480_a_at) / RFU GAP43 (11754022_s_at) / Fold change /veh GAP43 (11754022_s_at) / RFU A4GNT (11735810_at) / Fold change /veh A4GNT (11735810_at) / RFU PRB3 (11715151_x_at) / Fold change /veh PRB3 (11715151_x_at) / RFU TUBB4B (11761932_at) / Fold change /veh TUBB4B (11761932_at) / RFU CAPN14 (11732068_a_at) / Fold change /veh CAPN14 (11732068_a_at) / RFU TMCC2 (11721928_a_at) / Fold change /veh TMCC2 (11721928_a_at) / RFU IRGQ (11745062_a_at) / Fold change /veh IRGQ (11745062_a_at) / RFU FAM174B (11720279_a_at) / Fold change /veh FAM174B (11720279_a_at) / RFU TMPRSS4 (11748680_a_at) / Fold change /veh TMPRSS4 (11748680_a_at) / RFU FAM212B (11763350_a_at) / Fold change /veh FAM212B (11763350_a_at) / RFU PLEKHG5 (11743358_a_at) / Fold change /veh PLEKHG5 (11743358_a_at) / RFU ZSCAN30 (11745921_a_at) / Fold change /veh ZSCAN30 (11745921_a_at) / RFU CMKLR1 (11741424_a_at) / Fold change /veh CMKLR1 (11741424_a_at) / RFU LOC101060620 /// MAPK8IP1 (11723275_at) / Fold change /veh LOC101060620 /// MAPK8IP1 (11723275_at) / RFU SPTSSB (11747773_x_at) / Fold change /veh SPTSSB (11747773_x_at) / RFU PRSS12 (11739890_at) / Fold change /veh PRSS12 (11739890_at) / RFU BIN1 (11741810_x_at) / Fold change /veh BIN1 (11741810_x_at) / RFU WNT11 (11732464_a_at) / Fold change /veh WNT11 (11732464_a_at) / RFU C10orf10 (11716521_a_at) / Fold change /veh C10orf10 (11716521_a_at) / RFU C5orf56 (11738089_at) / Fold change /veh C5orf56 (11738089_at) / RFU CYB561 (11721691_x_at) / Fold change /veh CYB561 (11721691_x_at) / RFU ANKRD19P (11752326_a_at) / Fold change /veh ANKRD19P (11752326_a_at) / RFU OR2T12 /// OR2T33 /// OR2T8 (11738714_s_at) / Fold change /veh OR2T12 /// OR2T33 /// OR2T8 (11738714_s_at) / RFU VCAN (11748164_a_at) / Fold change /veh VCAN (11748164_a_at) / RFU JSRP1 (11732532_at) / Fold change /veh JSRP1 (11732532_at) / RFU KRTAP10-11 (11738290_x_at) / Fold change /veh KRTAP10-11 (11738290_x_at) / RFU MYO3A (11730013_a_at) / Fold change /veh MYO3A (11730013_a_at) / RFU EBF3 (11725865_a_at) / Fold change /veh EBF3 (11725865_a_at) / RFU CAMK2N1 (11719241_x_at) / Fold change /veh CAMK2N1 (11719241_x_at) / RFU C5orf56 (11738088_a_at) / Fold change /veh C5orf56 (11738088_a_at) / RFU OLFML3 (11715873_a_at) / Fold change /veh OLFML3 (11715873_a_at) / RFU LOC100653217 /// NTM (11731650_a_at) / Fold change /veh LOC100653217 /// NTM (11731650_a_at) / RFU MAPK11 (11762145_a_at) / Fold change /veh MAPK11 (11762145_a_at) / RFU FIZ1 (11724087_x_at) / Fold change /veh FIZ1 (11724087_x_at) / RFU OASL (11726364_x_at) / Fold change /veh OASL (11726364_x_at) / RFU SOX15 (11748057_x_at) / Fold change /veh SOX15 (11748057_x_at) / RFU CD79A (11719716_a_at) / Fold change /veh CD79A (11719716_a_at) / RFU HIST1H1D (11736915_at) / Fold change /veh HIST1H1D (11736915_at) / RFU CASKIN2 (11723855_a_at) / Fold change /veh CASKIN2 (11723855_a_at) / RFU LOC730098 (11760151_x_at) / Fold change /veh LOC730098 (11760151_x_at) / RFU OR4N2 (11742367_at) / Fold change /veh OR4N2 (11742367_at) / RFU PRRT2 (11749266_a_at) / Fold change /veh PRRT2 (11749266_a_at) / RFU SNX32 (11753110_a_at) / Fold change /veh SNX32 (11753110_a_at) / RFU CDHR5 (11726645_a_at) / Fold change /veh CDHR5 (11726645_a_at) / RFU RCAN1 (11760418_a_at) / Fold change /veh RCAN1 (11760418_a_at) / RFU FAM167A (11723789_a_at) / Fold change /veh FAM167A (11723789_a_at) / RFU FAM26E (11764081_at) / Fold change /veh FAM26E (11764081_at) / RFU ISYNA1 (11749810_s_at) / Fold change /veh ISYNA1 (11749810_s_at) / RFU ACY1 (11761880_at) / Fold change /veh ACY1 (11761880_at) / RFU 11764098_at / Fold change /veh 11764098_at / RFU SAMD14 (11745864_x_at) / Fold change /veh SAMD14 (11745864_x_at) / RFU NPB (11741838_a_at) / Fold change /veh NPB (11741838_a_at) / RFU TMPRSS6 (11731388_a_at) / Fold change /veh TMPRSS6 (11731388_a_at) / RFU KRTAP10-2 (11738614_at) / Fold change /veh KRTAP10-2 (11738614_at) / RFU ARHGAP8 /// PRR5-ARHGAP8 (11727945_x_at) / Fold change /veh ARHGAP8 /// PRR5-ARHGAP8 (11727945_x_at) / RFU KRTAP5-7 /// NADSYN1 (11734609_at) / Fold change /veh KRTAP5-7 /// NADSYN1 (11734609_at) / RFU RASL12 (11751679_a_at) / Fold change /veh RASL12 (11751679_a_at) / RFU CDKN2B (11736163_a_at) / Fold change /veh CDKN2B (11736163_a_at) / RFU PRF1 (11729649_at) / Fold change /veh PRF1 (11729649_at) / RFU, ZNF638 /// ZNF638-IT1 / Fold change vs veh, ZNF638 /// ZNF638-IT1 / RFU, PANK3 / Fold change vs veh, PANK3 / RFU, SH3YL1 / Fold change vs veh, SH3YL1 / RFU, ZEB2 / Fold change vs veh, ZEB2 / RFU, NRIP1 / Fold change vs veh, NRIP1 / RFU, PTTG1IP / Fold change vs veh, PTTG1IP / RFU, CAPN2 / Fold change vs veh, CAPN2 / RFU, MED14 / Fold change vs veh, MED14 / RFU, SNORA58 / Fold change vs veh, SNORA58 / RFU, C1orf63 / Fold change vs veh, C1orf63 / RFU, LRRFIP1 / Fold change vs veh, LRRFIP1 / RFU, NDUFAF7 / Fold change vs veh, NDUFAF7 / RFU, SLC12A2 / Fold change vs veh, SLC12A2 / RFU, IBTK / Fold change vs veh, IBTK / RFU, ESF1 / Fold change vs veh, ESF1 / Fold change vs veh, TMEM50B / RFU, TAOK1 / Fold change vs veh, TAOK1 / RFU, ACBD3 / Fold change vs veh, ACBD3 / RFU, TMA16 / Fold change vs veh, TMA16 / RFU, RWDD3 / Fold change vs veh, RWDD3 / RFU, BCAT1 / Fold change vs veh, BCAT1 / RFU, EDEM3 / Fold change vs veh, EDEM3 / RFU, TMEM33 / Fold change vs veh, TMEM33 / RFU, WDR75 / Fold change vs veh, WDR75 / RFU, AHCTF1 / Fold change vs veh, AHCTF1 / RFU, TFRC / Fold change vs veh, TFRC / RFU, ZDHHC17 / Fold change vs veh, ZDHHC17 / RFU, NOM1 / Fold change vs veh, NOM1 / RFU, ARL8B / Fold change vs veh, ARL8B / RFU, ZBTB11 / Fold change vs veh, ZBTB11 / RFU, TAMM41 / Fold change vs veh, TAMM41 / RFU, KIAA1704 /// LOC100996395 / Fold change vs veh, KIAA1704 /// LOC100996395 / RFU, ING1 / Fold change vs veh, ING1 / RFU, TRMT61B / Fold change vs veh, TRMT61B / RFU, FUBP3 / Fold change vs veh, FUBP3 / RFU, TP53 / Fold change vs veh, TP53 / RFU, TNKS2 / Fold change vs veh, TNKS2 / RFU, ZFP14 / Fold change vs veh, ZFP14 / RFU, ACTR2 / Fold change vs veh, ACTR2 / RFU, PPP3R1 / Fold change vs veh, PPP3R1 / RFU, PIK3R1 / Fold change vs veh, PIK3R1 / RFU, HNRNPA1 / Fold change vs veh, HNRNPA1 / RFU, RNF170 / Fold change vs veh, RNF170 / RFU, ZNF28 / Fold change vs veh, ZNF28 / RFU, RNGTT / Fold change vs veh, RNGTT / RFU, OGT / Fold change vs veh, OGT / RFU, BRD1 / Fold change vs veh, BRD1 / RFU, MARS / Fold change vs veh, MARS / RFU, ZNF655 / Fold change vs veh, ZNF655 / RFU, FAHD1 / Fold change vs veh, FAHD1 / RFU, BDP1 / Fold change vs veh, BDP1 / RFU, LRRCC1 / Fold change vs veh, LRRCC1 / RFU, ARID1A / Fold change vs veh, ARID1A / RFU, ZNF146 / Fold change vs veh, ZNF146 / RFU, ZNF330 / Fold change vs veh, ZNF330 / RFU, GPN3 / Fold change vs veh, GPN3 / RFU, C9orf123 / Fold change vs veh, C9orf123 / RFU, N4BP2L2 / Fold change vs veh, N4BP2L2 / RFU, ARFIP1 / Fold change vs veh, ARFIP1 / RFU, FAM179B / Fold change vs veh, FAM179B / RFU, BCL10 / Fold change vs veh, BCL10 / RFU, UHRF1BP1L / Fold change vs veh, UHRF1BP1L / RFU, BET1 / Fold change vs veh, BET1 / RFU, CNOT2 / Fold change vs veh, CNOT2 / RFU, ZNF268 / Fold change vs veh, ZNF268 / Fold change vs veh, ZNF507 / RFU, DGCR2 / Fold change vs veh, DGCR2 / RFU, WDSUB1 / Fold change vs veh, WDSUB1 / Fold change vs veh, HSP90B1 /// MIR3652 / RFU, ADSS / Fold change vs veh, ADSS / RFU, GK / Fold change vs veh, GK / RFU, ZNF148 / Fold change vs veh, ZNF148 / RFU, TAF9 / Fold change vs veh, TAF9 / RFU, SLC1A5 / Fold change vs veh, SLC1A5 / RFU, SLMO2 / Fold change vs veh, SLMO2 / RFU, ABCC4 / Fold change vs veh, ABCC4 / RFU, LOC101060439 /// RAP1B / Fold change vs veh, LOC101060439 /// RAP1B / RFU, RFX7 / Fold change vs veh, RFX7 / RFU, GTPBP10 / Fold change vs veh, GTPBP10 / RFU, CNEP1R1 / Fold change vs veh, CNEP1R1 / RFU, BIVM-ERCC5 /// ERCC5 / Fold change vs veh, BIVM-ERCC5 /// ERCC5 / RFU, ILF3 / Fold change vs veh, ILF3 / RFU 11762660_at / Fold change /veh 11762660_at / RFU VCAN (11757783_s_at) / Fold change /veh VCAN (11757783_s_at) / RFU DDX43 (11728927_at) / Fold change /veh DDX43 (11728927_at) / RFU KRT8 (11758188_x_at) / Fold change /veh KRT8 (11758188_x_at) / RFU NKD1 (11759106_at) / Fold change /veh NKD1 (11759106_at) / RFU SRD5A1 (11742802_a_at) / Fold change /veh SRD5A1 (11742802_a_at) / RFU TPSAB1 /// TPSB2 (11721975_s_at) / Fold change /veh TPSAB1 /// TPSB2 (11721975_s_at) / RFU GSTM3 (11746129_a_at) / Fold change /veh GSTM3 (11746129_a_at) / RFU IL23R (11737362_x_at) / Fold change /veh IL23R (11737362_x_at) / RFU TMEM51 (11727254_a_at) / Fold change /veh TMEM51 (11727254_a_at) / RFU PIWIL2 (11732686_x_at) / Fold change /veh PIWIL2 (11732686_x_at) / RFU ORM1 (11744905_x_at) / Fold change /veh ORM1 (11744905_x_at) / RFU CCDC152 (11743942_at) / Fold change /veh CCDC152 (11743942_at) / RFU ECM1 (11717891_a_at) / Fold change /veh ECM1 (11717891_a_at) / RFU IL23R (11748794_a_at) / Fold change /veh IL23R (11748794_a_at) / RFU TNFAIP8L3 (11732012_x_at) / Fold change /veh TNFAIP8L3 (11732012_x_at) / RFU MBOAT4 (11741988_at) / Fold change /veh MBOAT4 (11741988_at) / RFU 11764193_at / Fold change /veh 11764193_at / RFU TMEM53 (11763286_at) / Fold change /veh TMEM53 (11763286_at) / RFU MAGEB2 (11727129_at) / Fold change /veh MAGEB2 (11727129_at) / RFU TMEM200A (11744735_a_at) / Fold change /veh TMEM200A (11744735_a_at) / RFU CCDC152 (11751479_a_at) / Fold change /veh CCDC152 (11751479_a_at) / RFU FAM211A (11726209_a_at) / Fold change /veh FAM211A (11726209_a_at) / RFU RGS16 (11746705_a_at) / Fold change /veh RGS16 (11746705_a_at) / RFU VCAN (11755009_s_at) / Fold change /veh VCAN (11755009_s_at) / RFU RHOB (11743442_s_at) / Fold change /veh RHOB (11743442_s_at) / RFU RGS16 (11720943_a_at) / Fold change /veh RGS16 (11720943_a_at) / RFU RGS16 (11720944_at) / Fold change /veh RGS16 (11720944_at) / RFU, VPS4B / Fold change vs veh, VPS4B / RFU, CREB1 / Fold change vs veh, CREB1 / RFU, DNAJC13 / Fold change vs veh, DNAJC13 / RFU, GNAQ / Fold change vs veh, GNAQ / RFU, CDK5R1 / Fold change vs veh, CDK5R1 / RFU, ZRANB3 / Fold change vs veh, ZRANB3 / RFU, CUL4A / Fold change vs veh, CUL4A / RFU, CCNY / Fold change vs veh, CCNY / RFU, UFL1 / Fold change vs veh, UFL1 / RFU, COG3 / Fold change vs veh, COG3 / RFU, DIAPH2 / Fold change vs veh, DIAPH2 / RFU, SKA2 / Fold change vs veh, SKA2 / RFU, AFF3 / Fold change vs veh, AFF3 / RFU, LMF1 / Fold change vs veh, LMF1 / RFU, IPO11 / Fold change vs veh, IPO11 / RFU, DFFB / Fold change vs veh, DFFB / RFU, FOXP1 / Fold change vs veh, FOXP1 / RFU, CARD8 / Fold change vs veh, CARD8 / RFU, STRN3 / Fold change vs veh, STRN3 / RFU, ADK / Fold change vs veh, ADK / RFU, RASSF2 / Fold change vs veh, RASSF2 / RFU, WIPF1 / Fold change vs veh, WIPF1 / RFU, LARP1B / Fold change vs veh, LARP1B / RFU, RASA1 / Fold change vs veh, RASA1 / RFU, RB1 / Fold change vs veh, RB1 / RFU, PPFIA1 / Fold change vs veh, PPFIA1 / RFU, MAT2A / Fold change vs veh, MAT2A / RFU, CCT5 / Fold change vs veh, CCT5 / RFU, WDR92 / Fold change vs veh, WDR92 / RFU, CUX1 / Fold change vs veh, CUX1 / RFU, TTC7A / Fold change vs veh, TTC7A / RFU, TMEM135 / Fold change vs veh, TMEM135 / RFU, DEPTOR / Fold change vs veh, DEPTOR / RFU, CPM / Fold change vs veh, CPM / RFU, DNAJB6 / Fold change vs veh, DNAJB6 / RFU, CACNA2D3 / Fold change vs veh, CACNA2D3 / RFU, DTX4 / Fold change vs veh, DTX4 / RFU, TFCP2 / Fold change vs veh, TFCP2 / RFU, GMCL1 /// GMCL1P1 / Fold change vs veh, GMCL1 /// GMCL1P1 / RFU, AEBP2 / Fold change vs veh, AEBP2 / RFU, SNHG1 /// SNORD22 /// SNORD25 /// SNORD26 /// SNORD27 /// SNORD28 /// SNORD29 /// SNORD31 / Fold change vs veh, SNHG1 /// SNORD22 /// SNORD25 /// SNORD26 /// SNORD27 /// SNORD28 /// SNORD29 /// SNORD31 / Fold change (Aza/veh), C12orf56 (ProbeSet 11735607_a_at) / Fold change (ACY-1035/veh), C12orf56 (ProbeSet 11735607_a_at) / Fold change (Aza/veh), FGFR1OP (ProbeSet 11751329_s_at) / Fold change (ACY-1035/veh), FGFR1OP (ProbeSet 11751329_s_at) / Fold change (Aza/veh), VPS36 (ProbeSet 11739960_a_at) / Fold change (ACY-1035/veh), VPS36 (ProbeSet 11739960_a_at) / RFU SYPL1 (11715823_x_at) / Fold change /veh SYPL1 (11715823_x_at) / RFU IGFBP7 (11715501_s_at) / Fold change /veh IGFBP7 (11715501_s_at) / RFU REEP3 (11722064_at) / Fold change /veh REEP3 (11722064_at) / RFU IGLL1 (11728026_x_at) / Fold change /veh IGLL1 (11728026_x_at): dose or concentration left out as unconfirmed. Particulars: ProbeSet 11746640_a_at; LIST D.

For the compound `Nc1ncn([C@@H]2O[C@H](CO)[C@@H](O)[C@H]2O)c(=O)n1` [azacitidine], the “Fold change vs veh, RASSF2” value is on record as 0.77.
